Reference: patent US8133686B2 (Van Andel Research Institute, priority 2008, dated 2012)
Where two headings read alike, the source gives them in different places.

How the values were obtained:
RCC cell lines = assay: cells; conditions: Homo sapiens
SN12C xenografts = assay: SN12C xenograft model, intermittent sunitinib dosing (3 weeks on, 3 weeks off)
HUVEC and HLMVEC cells = assay: cells; conditions: Homo sapiens
A-498 xenografts = assay: A-498 xenograft model, intermittent sunitinib dosing (3 weeks on, 3 weeks off)
[1] = preliminary studies (data not shown)
[2] = 40 mg/kg, 3-weeks-on and 3-weeks-off

CCN(CC)CCNC(=O)c1c(C)[nH]c(/C=C2\C(=O)Nc3ccc(F)cc32)c1C [SU11248, sunitinib]
IC50 (RCC cell lines; read-out: IC50 on proliferation of RCC cell lines, similar under both conditions: normal culture/complete medium and ligand-dependent/PDGF-only): 4 to 10 µM
IC50 (RCC cell lines; read-out: IC50 on proliferation of RCC cells, complete medium): 4 to 10 µM
IC50 (RCC cell lines; read-out: IC50 on proliferation of RCC cells, ligand-dependent condition): 2 to 6 µM
treated SN12C xenograft mice showing phenotypic resistance (SN12C xenografts; 80 mg/kg, 3-weeks-on and 3-weeks-off): 33%
minimal required dosage to induce stable disease (SN12C xenografts; [1]): 80 mg/kg
IC50 (HUVEC and HLMVEC cells; read-out: IC50 on proliferation of endothelial cell lines): ~0.01 µM
IC50 (HUVEC and HLMVEC cells; read-out: IC50 on proliferation of endothelial cells): ~6 µM
treated A-498 xenograft mice showing phenotypic resistance (A-498 xenografts; [2]): 38%
treated A-498 xenograft mice showing phenotypic resistance (resistant/treated) (A-498 xenografts; [2]): 13/34
minimal required dosage to induce stable disease (A-498 xenografts; [1]): 40 mg/kg
